Measured values published in ChEMBL document CHEMBL5346927, “Discovery of a novel 1H-pyrazole- [3,4-b] pyridine-based lysine demethylase 5B inhibitor with potential anti-prostate cancer activity that perturbs the phosphoinositide 3-kinase/AKT pathway” (Eur J Med Chem, 2023).
The source made the active and inactive calls. The rule behind the calls is not given here.

Tests used:
[1] = Toxicity in BALB/C nude mouse xenografted with human PC-3 cells assessed as indistinct prostate tube wall at 25 mg/kg, IG administered for 25 days by H&E staining based analysis; assay type: organism-based; details: in vivo, po, 600 h, time 25 day
MGC-803 = experiment: Antitumor activity against human MGC-803 cells assessed as inhibition of cell proliferation incubated for 72 hrs by MTT assay; assay type: functional, cell-based; details: MGC-803, 72 h
LNCaP = experiment: Induction of cell cycle arrest in human LNCaP cells assessed as accumulation of cells at G2/M phase at 5 micromol/L incubated for 48 hrs by PI/RNaseA staining based flow cytometric analysis; assay type: functional; details: dose 5.0 µmol/L
[2] = biological target: T1, Lysine-specific demethylase 5B (Homo sapiens, UniProt Q9UGL1); experiment: Inhibition of KDM5B (unknown origin) at 10 uM relative to control
T1 sequence (Q9UGL1 whole entry): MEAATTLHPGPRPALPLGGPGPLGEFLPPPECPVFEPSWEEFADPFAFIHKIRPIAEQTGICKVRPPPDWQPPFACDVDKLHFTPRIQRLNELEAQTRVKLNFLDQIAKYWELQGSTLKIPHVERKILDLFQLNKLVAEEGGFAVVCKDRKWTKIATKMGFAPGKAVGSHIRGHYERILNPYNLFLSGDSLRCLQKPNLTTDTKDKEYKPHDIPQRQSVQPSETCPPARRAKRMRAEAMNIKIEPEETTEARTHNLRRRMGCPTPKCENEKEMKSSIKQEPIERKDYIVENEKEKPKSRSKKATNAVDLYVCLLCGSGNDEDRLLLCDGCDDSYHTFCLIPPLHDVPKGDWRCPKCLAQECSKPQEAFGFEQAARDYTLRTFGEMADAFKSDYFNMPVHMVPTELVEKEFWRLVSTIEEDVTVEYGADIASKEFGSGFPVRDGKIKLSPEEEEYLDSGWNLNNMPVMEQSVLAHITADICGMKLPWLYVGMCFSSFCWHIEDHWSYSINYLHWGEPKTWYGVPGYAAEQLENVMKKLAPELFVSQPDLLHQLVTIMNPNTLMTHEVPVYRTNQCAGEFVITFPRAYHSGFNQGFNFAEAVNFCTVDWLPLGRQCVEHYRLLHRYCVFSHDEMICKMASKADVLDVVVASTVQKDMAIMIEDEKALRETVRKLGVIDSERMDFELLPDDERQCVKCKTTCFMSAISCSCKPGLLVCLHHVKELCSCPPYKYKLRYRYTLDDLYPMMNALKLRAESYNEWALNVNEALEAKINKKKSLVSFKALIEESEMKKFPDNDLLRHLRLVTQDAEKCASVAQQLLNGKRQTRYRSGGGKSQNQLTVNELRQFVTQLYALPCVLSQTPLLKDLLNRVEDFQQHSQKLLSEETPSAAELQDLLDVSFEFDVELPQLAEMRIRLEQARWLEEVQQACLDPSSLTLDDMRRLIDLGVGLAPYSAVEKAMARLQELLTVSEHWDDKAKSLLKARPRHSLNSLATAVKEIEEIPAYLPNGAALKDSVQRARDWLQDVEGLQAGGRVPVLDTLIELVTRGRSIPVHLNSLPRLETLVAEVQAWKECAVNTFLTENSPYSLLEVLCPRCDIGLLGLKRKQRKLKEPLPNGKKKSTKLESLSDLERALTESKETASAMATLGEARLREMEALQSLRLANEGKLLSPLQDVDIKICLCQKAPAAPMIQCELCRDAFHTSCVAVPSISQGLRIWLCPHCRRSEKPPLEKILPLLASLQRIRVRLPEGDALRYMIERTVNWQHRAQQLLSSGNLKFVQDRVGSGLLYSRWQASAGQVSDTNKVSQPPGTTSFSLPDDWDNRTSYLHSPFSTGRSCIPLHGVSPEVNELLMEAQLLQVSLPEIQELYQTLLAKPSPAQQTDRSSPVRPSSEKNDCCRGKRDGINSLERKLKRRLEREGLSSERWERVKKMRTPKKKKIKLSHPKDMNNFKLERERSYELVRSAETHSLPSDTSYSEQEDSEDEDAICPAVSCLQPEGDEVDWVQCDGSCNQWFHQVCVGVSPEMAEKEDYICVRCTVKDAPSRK

[3] = Clearance in ICR mouse at 5 mg/kg, iv measured at 0.083 to 24 hrs by LC-MS analysis; assay type: ADME, organism-based; details: in vivo, time 0.083-24 hrs
PC-3 [4] = experiment: Inhibition of cell migration in human PC-3 cells at 5 to 10 uM by wound scratch assay; assay type: functional, cell-based; details: dose 5-10 µM, time <= 24.0 hrs, TDE = time-dependent effect
[5] = Toxicity in BALB/C nude mouse xenografted with human PC-3 cells assessed as reduction in prostate gland cells at 25 mg/kg, IG administered for 25 days by H&E staining based analysis; assay type: organism-based; details: in vivo, po, 600 h, time 25 day
[6] = Toxicity in BALB/C nude mouse xenografted with human PC-3 cells assessed as prostate gland damage at 25 to 50 mg/kg, IG administered for 25 days by H&E staining based analysis; assay type: organism-based; details: in vivo, po, 600 h, dose 25-50 mg/kg, time 25 day
HepG2 = experiment: Antitumor activity against human HepG2 cells assessed as inhibition of cell proliferation incubated for 72 hrs by MTT assay; assay type: functional, cell-based; details: HepG2, 72 h
[7] = AUC (0 to t) in ICR mouse at 5 mg/kg, iv measured at 0.083 to 24 hrs by LC-MS analysis; assay type: ADME, organism-based; parameters: time lower 0.083 hrs, dose 5 mg/kg, time upper 24 hrs, route iv; details: in vivo
[8] = Half-life in ICR mouse at 25 mg/kg, IG measured at 0.083 to 24 hrs by LC-MS analysis; assay type: ADME, organism-based; details: in vivo, po, time 0.083-24 hrs
PC-3 [9] = experiment: Induction of apoptosis in human PC-3 cells assessed as late apoptotic cells at 10 uM incubated for 72 hrs by Annexin V-FITC/PI staining based flow cytometric analysis (reference value: 1.05%); assay type: functional
PC-3 [10] = experiment: Induction of apoptosis in human PC-3 cells assessed as early apoptotic cells at 10 uM incubated for 72 hrs by Annexin V-FITC/PI staining based flow cytometric analysis (reference value: 3.01%); assay type: functional
PC-3 [11] = experiment: Induction of apoptosis in human PC-3 cells assessed as early apoptotic cells at 2.5 uM incubated for 72 hrs by Annexin V-FITC/PI staining based flow cytometric analysis (reference value: 3.01%); assay type: functional
[12] = Acute toxicity in Kunming mouse assessed as effect on liver at 2 g/Kg, IG measured after 2 weeks by H&E staining based analysis; assay type: tissue-based; details: in vivo, po, 2000 mg/kg, 336 h
PC-3 [13] = experiment: Induction of apoptosis in human PC-3 cells assessed as necrotic cells at 5 uM incubated for 72 hrs by Annexin V-FITC/PI staining based flow cytometric analysis (reference value: 5.01%); assay type: functional
[14] = Acute toxicity in Kunming mouse assessed as effect on kidney at 2 g/Kg, IG measured after 2 weeks by H&E staining based analysis; assay type: tissue-based; details: in vivo, po, 2000 mg/kg, 336 h
[15] = Tmax in ICR mouse at 5 mg/kg, iv measured at 0.083 to 24 hrs by LC-MS analysis; assay type: ADME, organism-based; details: in vivo, time 0.083-24 hrs
PC-3 [16] = experiment: Induction of apoptosis in human PC-3 cells assessed as early apoptotic cells at 5 uM incubated for 72 hrs by Annexin V-FITC/PI staining based flow cytometric analysis (reference value: 3.01%); assay type: functional
PC-3 [17] = experiment: Induction of cell cycle arrest in human PC-3 cells assessed as increase in G2/M phase cell ratio at 5 uM incubated for 24 hrs by PI/RNase A staining based flow cytometric analysis (reference value: 16.07%); assay type: functional
PC-3 [18] = experiment: Antitumor activity against human PC-3 cells xenografted in BALB/C nude mice assessed as decrease in tumor volume at 25 to 50 mg/kg, IG administered for 25 days; assay type: functional, organism-based; details: dose 25-50 mg/kg, time 25.0 day
[19] = Acute toxicity in Kunming mouse assessed as effect on behavioral abnormalities at 2 g/Kg, IG measured after 2 weeks; details: in vivo, po, 2000 mg/kg, 336 h
PC-3 [20] = experiment: Inhibition of PI3K/AKT pathway in human PC-3 cells assessed as decrease in AKT phosphorylation at Thr308 residue at 20 uM by Western blot analysis relative to control; assay type: cell-based
[21] = Toxicity in BALB/C nude mouse xenografted with human PC-3 cells assessed as heart damage at 25 to 50 mg/kg, IG administered for 25 days by H&E staining based analysis; assay type: organism-based; details: in vivo, po, 600 h, dose 25-50 mg/kg, time 25 day
PC-3 [22] = experiment: Antitumor activity against human PC-3 cells assessed as inhibition of cell proliferation incubated for 72 hrs by MTT assay; assay type: functional, cell-based; details: PC-3, 72 h
[23] = biological target: T1, Lysine-specific demethylase 5B; experiment: Binding affinity to KDM5B in human PC-3 cells assessed as thermal stability by measuring KDM5B expression level preincubated with compound for 6 hrs followed by 20 mins incubation under 46 to 56 degreeC by CETSA based Western blot analysis; assay type: cell-based; details: time 380.0 min
PC-3 [24] = experiment: Induction of apoptosis in human PC-3 cells assessed as late apoptotic cells at 2.5 uM incubated for 72 hrs by Annexin V-FITC/PI staining based flow cytometric analysis (reference value: 1.05%); assay type: functional
PC-3 [25] = experiment: Induction of apoptosis in human PC-3 cells assessed as viable cells at 2.5 uM incubated for 72 hrs by Annexin V-FITC/PI staining based flow cytometric analysis (reference value: 90.93%); assay type: functional; details: read-out: Activity
PC-3 [26] = experiment: Induction of cell cycle arrest in human PC-3 cells assessed as increase in G2/M phase cell ratio at 2.5 uM incubated for 24 hrs by PI/RNase A staining based flow cytometric analysis (reference value: 16.07%); assay type: functional
PC-3 [27] = experiment: Inhibition of colony formation in human PC-3 cells incubated for 72 hrs by crystal violet staining based microplate reader analysis; assay type: functional, cell-based; details: dose 1.25-5 µM
[28] = Toxicity in BALB/C nude mouse xenografted with human PC-3 cells assessed as lung damage at 25 to 50 mg/kg, IG administered for 25 days by H&E staining based analysis; assay type: organism-based; details: in vivo, po, 600 h, dose 25-50 mg/kg, time 25 day
[29] = Acute toxicity in Kunming mouse assessed as effect on heart at 2 g/Kg, IG measured after 2 weeks by H&E staining based analysis; assay type: tissue-based; details: in vivo, po, 2000 mg/kg, 336 h
[30] = MRT (0 to t) in ICR mouse at 5 mg/kg, iv measured at 0.083 to 24 hrs by LC-MS analysis; assay type: ADME, organism-based; details: in vivo, time 0.083-24 hrs
PC-3 [31] = experiment: Inhibition of PI3K/AKT pathway in human PC-3 cells assessed as decrease in AKT phosphorylation at Ser473 residue at 20 uM by Western blot analysis relative to control; assay type: cell-based
[32] = Toxicity in BALB/C nude mouse xenografted with human PC-3 cells assessed as spleen damage at 25 to 50 mg/kg, IG administered for 25 days by H&E staining based analysis; assay type: organism-based; details: in vivo, po, 600 h, dose 25-50 mg/kg, time 25 day

For `CN1CCN(CCNC(=O)c2cc(-c3ccc4ccccc4c3)nc3c2cnn3-c2ccccc2)CC1`, which Activity [1] is on record?
The Activity was “Non-Toxic”.

What about the IC50 (MGC-803) of the same compound?
Its IC50 is 6.09 µM.

And the Activity (LNCaP)?
The Activity was “inactive”.

What about the inhibition [2] of the same compound?
The inhibition was 102%.

And the CL [3]?
The CL was 8.17 mL/min/kg.

And the inhibition (PC-3 [4])?
Its inhibition is “Tde”.

What about the Activity [5] of the same compound?
The Activity was “Non-Toxic”.

And the Activity [6]?
Its Activity is “Non-Toxic”.

What about the IC50 (HepG2) of the same compound?
The IC50 was 5.76 µM.

And the AUCt [7]?
The AUCt was 44437.67 ng·h/mL.

And the half-life [8]?
The half-life was 5.3 h.

And the Activity (PC-3 [9])?
The Activity was 16.39%.

What about the Activity (PC-3 [10]) of the same compound?
Its Activity is 0.81%.

What about the Activity (PC-3 [11]) of the same compound?
The Activity was 0.7%.

And the Activity [12]?
The Activity was “Non-Toxic”.

And the Activity (PC-3 [13])?
Its Activity is 18.77%.

What about the Activity [14] of the same compound?
The Activity was “Non-Toxic”.

What about the Tmax [15] of the same compound?
The Tmax was 4.98 min.

And the Activity (PC-3 [16])?
The Activity was 0.64%.

What about the Activity (PC-3 [17]) of the same compound?
Its Activity is 27.47%.

What about the Activity (PC-3 [18]) of the same compound?
The Activity was “Active”.

What about the Activity [19] of the same compound?
Its Activity is “Non-Toxic”.

What about the inhibition (PC-3 [20]) of the same compound?
The inhibition was 60%.

And the Activity [21]?
Its Activity is “Non-Toxic”.

And the IC50 (PC-3 [22])?
The IC50 was 2.18 µM.

What about the Activity [23] of the same compound?
The Activity was “Active”.

What about the Activity (PC-3 [24]) of the same compound?
The Activity was 5.94%.

And the viability at 2.5 µM (PC-3 [25])?
Its viability at 2.5 µM is 75%.

What about the Activity (PC-3 [26]) of the same compound?
The Activity was 18.17%.

What about the inhibition (PC-3 [27]) of the same compound?
The inhibition was “Dose-Dependent Effect”.

And the Activity [28]?
Its Activity is “Non-Toxic”.

What about the Activity [29] of the same compound?
The Activity was “Non-Toxic”.

And the “MRT(t)” value [30]?
The value was 10.29 h.

What about the inhibition (PC-3 [31]) of the same compound?
Its inhibition is 40%.

And the Activity [32]?
Its Activity is “Non-Toxic”.
